Data taken from publication PMC12605013, “SAG1.3-derived Frizzled-targeting small-molecule compounds” (The Journal of Biological Chemistry, 2025).

T1: Nluc-FZD6 (Homo sapiens, UniProt O60353)
T1 construct: expressed in transfected cells; host or cells: ΔSMO HEK293A or ΔFZD1–10 HEK293T cells (screen); ΔFZD1–10 HEK293T cells (concentration–response curves)
T1 sequence (O60353 19-706): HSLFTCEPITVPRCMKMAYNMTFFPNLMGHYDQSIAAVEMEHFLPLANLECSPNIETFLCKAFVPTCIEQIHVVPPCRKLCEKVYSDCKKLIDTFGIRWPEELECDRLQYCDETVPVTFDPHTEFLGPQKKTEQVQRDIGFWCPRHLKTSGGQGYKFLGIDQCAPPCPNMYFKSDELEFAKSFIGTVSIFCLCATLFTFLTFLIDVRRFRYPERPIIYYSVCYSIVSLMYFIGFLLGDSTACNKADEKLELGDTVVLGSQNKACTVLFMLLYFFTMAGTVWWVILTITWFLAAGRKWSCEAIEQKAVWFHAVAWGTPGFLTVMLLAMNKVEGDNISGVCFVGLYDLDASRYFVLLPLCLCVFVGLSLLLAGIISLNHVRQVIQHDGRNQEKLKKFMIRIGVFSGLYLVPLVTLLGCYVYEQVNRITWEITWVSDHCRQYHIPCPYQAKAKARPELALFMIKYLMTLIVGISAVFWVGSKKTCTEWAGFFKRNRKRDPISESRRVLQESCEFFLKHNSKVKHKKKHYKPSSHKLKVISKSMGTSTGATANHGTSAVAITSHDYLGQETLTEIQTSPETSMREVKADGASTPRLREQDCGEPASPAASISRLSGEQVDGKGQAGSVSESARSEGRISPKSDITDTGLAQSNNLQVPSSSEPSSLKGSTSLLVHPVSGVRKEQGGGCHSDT


Legend:
Nluc-FZD6 = molecular target: T1, Nluc-FZD6; test: BRET-based BODIPY-cyclopamine competition binding at Nluc-FZD6 in live HEK293 cells; conditions: for Displacement % / Displacement @ 10 µM compound (Nluc-FZD6) ΔBRET: 10 µM compound, BODIPY-cyclopamine 300 nM
Procedure: After 24 h, cells were washed once with Hanks' balanced salt solution (HBSS), followed by the addition of 80 μl of HBSS. Next, 10 μl of the competitive ligand, that is, the tested SAG1.3 derivative (either in different concentrations for the concentration–response curves or at a final concentration of 10 μM for the first screens) and 10 μl of the fluorescent tracer BODIPY–cyclopamine (final concentration: 300 nM for the first screens, 200 nM for the concentration–response experiments) were added. All serial dilutions were prepared in HBSS. The cells were incubated for 90 min at 37 °C without additional CO2, after which 10 μl of luciferase substrate diluted in HBSS (furimazine; Promega, N1572, final dilution: 1:1000 for first screening) and coelenterazine h (Biosynth; final concentration: 5 μM for concentration–response experiments) were added to the cells. Following a 10 min incubation period in the dark, the measurement was started on a BMG Labtech ClarioStar or TECAN Spark multimode microplate reader, prewarmed to 37 °C. Nluc bioluminescence was detected between 460 and 490 nm (ClarioStar) or 460 and 500 nm (TECAN Spark). The emission of the fluorescent tracer was detected between 520 and 550 nm (ClarioStar) or between 520 and 560 nm (TECAN Spark).
For each binding experiment, the measurement was repeated five times and averaged for the analysis. ΔBRET values were obtained by subtracting the BRET ratio obtained in wells containing BODIPY–cyclopamine but no competitive ligand (100% value). The BRET values for full displacement were defined using “donor-only” control wells, which contained Nluc-FZDx-transfected cells but no BODIPY–cyclopamine.
For the full concentration–response BRET binding curves in Figure 2, BRET values were normalized (separately for each experiment) to control wells containing BODIPY–cyclopamine but no competitive ligand (100% value) and “donor-only” wells (0% value, described previously). […] Obtained IC50 values were transformed to pIC50 values, which were subsequently averaged between experiments. Displacement curves showing the non-normalized data (ΔBRET values generated as described previously) can be found in Fig. S2.
Shown are mean values and SDs from N independent experiments (N = 2-8) performed in duplicate.
Shown are mean values ± SEM from N independent experiments performed in triplicate.

FZD6 = tested on: FZD6; set-up: method as in PMID 31964872, PMID 34168128; conditions: ref [18], [24]; cited from earlier work
[1] = set-up: method as in PMID 31338636, PMID 32803633; conditions: ref [14], [54]; cited from earlier work
[2] = TECAN Spark reader (complete tracer displacement: net BRET = -0.03823)
[3] = BODIPY-cyclopamine 200 nM, ΔFZD1-10 HEK293T cells
[4] = BMG Labtech ClarioStar reader (complete tracer displacement: net BRET = -0.02736)

Molecule | Displacement % (Nluc-FZD6; TECAN Spark reader) | Displacement @ 10 µM compound (Nluc-FZD6) ΔBRET (Nluc-FZD6; [2]) | pIC50 (Nluc-FZD6) mean ± SEM (Nluc-FZD6; [3]) | further results
CCC(=O)Nc1cccc(C(=O)N[C@H]2CC[C@H](N(Cc3cccc(-c4ccncc4)c3)C(=O)c3sc4ccccc4c3Cl)CC2)c1 [compound 14, 3-Chloro-N-((1r,4r)-4-(3-propionamidobenzamido)cyclohexyl)-N-(3-(pyridin-4-yl)benzyl)benzo[b]thiophene-2-carboxamide] | 75.9% | -0.0290 | 5.57 ± 0.17 | –
O=C(NC1CCC(N(Cc2ccc(-c3cccnc3)cc2)C(=O)c2sc3ccccc3c2Cl)CC1)c1ccco1 (stereo not shown) [compound 52, N-(4-(3-Chloro-N-(4-(pyridin-3-yl)benzyl)benzo[b]thiophene-2-carboxamido)cyclohexyl)furan-2-carboxamide] | – | – | – | Displacement @ 10 µM compound (Nluc-FZD6) ΔBRET (Nluc-FZD6; [4]): -0.0194; Displacement % (Nluc-FZD6; ClarioStar reader): 70.9%; IC50 (Nluc-FZD6; BODIPY-cyclopamine 200 nM, ΔFZD1-10 HEK293T cells, read-out: pIC50 (Nluc-FZD6) mean ± SEM (converted)): 8.71 µM
CN1CCC(C(=O)Nc2cccc(C(=O)N[C@H]3CC[C@H](N(Cc4cccc(-c5ccncc5)c4)C(=O)c4sc5ccccc5c4Cl)CC3)c2)CC1 [compound 17, N-(3-(((1r,4r)-4-(3-Chloro-N-(3-(pyridin-4-yl)benzyl)benzo[b]thiophene-2-carboxamido)cyclohexyl)-carbamoyl)phenyl)-1-methylpiperidine-4-carboxamide] | 73.6% | -0.0281 | 5.49 ± 0.04 | –
CN1CCN(CC(=O)Nc2cccc(C(=O)N[C@H]3CC[C@H](N(Cc4cccc(-c5ccncc5)c4)C(=O)c4sc5ccccc5c4Cl)CC3)c2)CC1 [compound 18, 3-Chloro-N-((1r,4r)-4-(3-(2-(4-methylpiperazin-1-yl)acetamido)benzamido)cyclohexyl)-N-(3-(pyridin-4-yl)benzyl)benzo[b]thiophene-2-carboxamide] | 81.1% | -0.0310 | 5.50 ± 0.04 | –
CN[C@H]1CC[C@H](N(Cc2cccc(-c3ccncc3)c2)C(=O)c2sc3ccccc3c2Cl)CC1.Cl.Cl [SAG1.3, 3-chloro-N-[trans-4-(methylamino)cyclohexyl]-N-[[3-(4-pyridinyl)phenyl]methyl]-benzo[b]thiophene-2-carboxamide dihydrochloride] | 38.7% | -0.0148 | – | Displacement @ 10 µM compound (Nluc-FZD6) ΔBRET (Nluc-FZD6; [4]): -0.0099; Displacement % (Nluc-FZD6; ClarioStar reader): 36.1%; Efficacy at FZD6 (FZD6): very low efficacy; Potency at FZD6 (FZD6): double-digit micromolar potency
O=C(N[C@H]1CC[C@H](N(Cc2cccc(-c3ccncc3)c2)C(=O)c2sc3ccccc3c2Cl)CC1)c1ccco1 [compound 10] | – | – | 5.29 ± 0.02 | Displacement @ 10 µM compound (Nluc-FZD6) ΔBRET (Nluc-FZD6; [4]): -0.0207; Displacement % (Nluc-FZD6; ClarioStar reader): 75.5%
CC(C)C(=O)Nc1cccc(C(=O)N[C@H]2CC[C@H](N(Cc3cccc(-c4ccncc4)c3)C(=O)c3sc4ccccc4c3Cl)CC2)c1 [compound 15, 3-Chloro-N-((1r,4r)-4-(3-isobutyramidobenzamido)cyclohexyl)-N-(3-(pyridin-4-yl)benzyl)benzo[b]thiophene-2-carboxamide] | 70.1% | -0.0268 | 5.13 ± 0.16 | –
vantictumab: monoclonal antibody binding to five of 10 FZD paralogs (antibody, chains of the INN, looked up, V domains shown) VH: EVQLVESGGGLVQPGGSLRLSCAASGFTFSHYTLSWVRQAPGKGLEWVSVISGDGSYTYYADSVKGRFTISSDNSKNTLYLQMNSLRAEDTAVYYCARNFIKYVFANWGQGTLVTVSS VL: DIELTQPPSVSVAPGQTARISCSGDNIGSFYVHWYQQKPGQAPVLVIYDKSNRPSGIPERFSGSNSGNTATLTISGTQAEDEADYYCQSYANTLSLVFGGGTKLTVL | – | – | – | Reason for dismissal in phase Ib clinical trials [1]: bone toxicity

Second part, led by results:

Displacement % (Nluc-FZD6; TECAN Spark reader) | Displacement @ 10 µM compound (Nluc-FZD6) ΔBRET (Nluc-FZD6; [2]) | pIC50 (Nluc-FZD6) mean ± SEM (Nluc-FZD6; [3]) | Molecule | further results
85.8% | -0.0328 | 5.54 ± 0.03 | Nc1ccc(C(=O)N[C@H]2CC[C@H](N(Cc3cccc(-c4ccncc4)c3)C(=O)c3sc4ccccc4c3Cl)CC2)nn1 [compound 23, 6-Amino-N-((1r,4r)-4-(3-chloro-N-(3-(pyridin-4-yl)benzyl)benzo[b]thiophene-2-carboxamido)cyclohexyl)pyridazine-3-carboxamide] | –
78.2% | -0.0299 | 5.44 ± 0.05 | O=C(N[C@H]1CC[C@H](N(Cc2cccc(-c3ccncc3)c2)C(=O)c2sc3ccccc3c2Cl)CC1)c1ccncc1Cl [compound 21, 3-Chloro-N-((1r,4r)-4-(3-chloro-N-(3-(pyridin-4-yl)benzyl)benzo[b]thiophene-2-carboxamido)cyclohexyl)isonicotinamide] | –
87.6% | -0.0335 | 5.71 ± 0.04 | O=C(CN1CCOCC1)Nc1cccc(C(=O)N[C@H]2CC[C@H](N(Cc3cccc(-c4ccncc4)c3)C(=O)c3sc4ccccc4c3Cl)CC2)c1 [compound 19, 3-Chloro-N-((1r,4r)-4-(3-(2-morpholinoacetamido)benzamido)cyclohexyl)-N-(3-(pyridin-4-yl)benzyl)benzo[b]thiophene-2-carboxamide] | –
